From publication PMC6934184, “Selective DNA-PKcs inhibition extends the therapeutic index of localized radiotherapy and chemotherapy” (The Journal of Clinical Investigation, 2019) come the findings set out here.

In this assay the target is T1, JAK2 JH1 JH2 (Homo sapiens, UniProt O60674).
T1 construct: JAK2 JH1 JH2; purchased Thermo Fisher Scientific (Life Technologies) SelectScreen
Briefly: SelectScreen Z'LYTE. The assay is classed as biochemical. The method in brief: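 SelectScreen broad panel; activity (Z'LYTE, Adapta) plus binding formats. ATP: Km app for CSF1R Z'LYTE; 10 for CAMK1 Adapta. Readout = % per kinase.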

As a reminder, the inhibition is the relative decrease from the control value, in per cent.

T1 sequence (O60674 532-1132 limits assumed): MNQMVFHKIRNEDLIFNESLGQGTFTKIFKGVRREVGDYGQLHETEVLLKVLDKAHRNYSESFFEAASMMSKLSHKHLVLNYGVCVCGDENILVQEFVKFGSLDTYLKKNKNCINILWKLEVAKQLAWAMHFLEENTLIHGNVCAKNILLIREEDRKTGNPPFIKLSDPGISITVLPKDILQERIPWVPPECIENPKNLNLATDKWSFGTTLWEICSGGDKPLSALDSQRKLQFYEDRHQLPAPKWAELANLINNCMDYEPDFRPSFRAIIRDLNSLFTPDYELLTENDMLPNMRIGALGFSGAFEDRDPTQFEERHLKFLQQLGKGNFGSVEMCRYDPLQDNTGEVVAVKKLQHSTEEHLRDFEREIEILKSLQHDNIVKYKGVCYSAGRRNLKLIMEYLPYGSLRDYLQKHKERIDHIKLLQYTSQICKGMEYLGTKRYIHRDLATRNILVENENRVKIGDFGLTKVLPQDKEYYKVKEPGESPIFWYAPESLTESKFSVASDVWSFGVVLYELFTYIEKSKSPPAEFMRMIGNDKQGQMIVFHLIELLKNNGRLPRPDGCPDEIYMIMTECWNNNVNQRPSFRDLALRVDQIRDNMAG

Regarding `CN(C(=O)CN1CCOCC1)c1ccc2sc3c(-c4cccc5c(=O)cc(N6CC7CCC(C6)O7)oc45)cccc3c2c1` [NU5455], the inhibition at 1 µM is -6.7%.
